From US6730792B2, “β3 adrenergic agonists” (Eli Lilly and Company, priority 2000, dated 2004)

target: T1, human β3 adrenergic receptor (Homo sapiens, UniProt P13945); assay: whole cell receptor coupled c-AMP assay, human β3 receptor in CHO cells (EC50, Emax relative to isoproterenol); type: cell-based; settings: Emax ± standard error of the mean; average of at least 3 runs except where n = 1; compound tested in the isolated form listed
T1 construct: expressed in transfected cells; host or cells: DXB-11 Chinese hamster ovary (CHO) cell line, stably transfected (phd expression vector)
T1 sequence (P13945 whole entry): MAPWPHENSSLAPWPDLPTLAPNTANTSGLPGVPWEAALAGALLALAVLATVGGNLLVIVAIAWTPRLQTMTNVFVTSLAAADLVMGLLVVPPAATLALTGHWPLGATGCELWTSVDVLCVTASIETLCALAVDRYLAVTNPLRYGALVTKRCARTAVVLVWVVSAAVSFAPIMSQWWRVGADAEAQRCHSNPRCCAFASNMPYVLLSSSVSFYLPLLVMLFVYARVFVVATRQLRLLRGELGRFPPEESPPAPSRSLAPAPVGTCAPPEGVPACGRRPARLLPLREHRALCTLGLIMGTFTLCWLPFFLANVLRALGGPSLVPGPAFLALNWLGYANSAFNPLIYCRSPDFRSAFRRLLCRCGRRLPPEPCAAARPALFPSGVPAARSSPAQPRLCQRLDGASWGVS
Text: The genes encoding the human β1-adrenergic receptor (Frielle et al., Proc. Natl. Acad. Sci., 84:7920-7924, 1987), the human β2-adrenergic receptor (Kobika et al., Proc. Natl. Acad. Sci., 84:46-50, 1987, Emorine et al., Proc. Natl. Acad. Sci., 84:6995-6999, 1987) and the human β3 adrenergic receptor (Granneman et al., Molecular Pharmacology, 44(2):264-70, 1993) are individually subcloned into a phd expression vector (Grinnell et al., Bio/Technology, 5:1189-1192, 1987) and transfected into the DXB-11 Chinese hamster ovary (CHO) cell line by calcium phosphate precipitation methodology. The stably transfected cells are grown to 95% confluency in 95% Dulbecco's modified Eagles Medium (DMEM), 5% fetal bovine serum and 0.01% proline. Media is removed and the cells are washed with phosphate buffered (pH 7.4) saline (without magnesium and calcium). Cells are then lifted using an enzyme free cell dissociation solution (Specialty Media, Lavallette, N.J.) and pelleted by centrifugation.
Cells from each of the above cell lines are resuspended and added (20,000/well) to a 96-well plate. Cells are incubated at 37° C. with representative compounds of the invention for 20 minutes in buffer (Hank's balanced salt solution, 10 mM HEPES, 0.1% BSA, 1 mM L-ascorbic acid, 0.2% dimethyl sulfoxide, 1 mm 3-isobutyl-1-methylxanthine, pH 7.4). After halting the incubation with quench buffer (50 mM Na Acetate, 0.25% Triton X-100, pH 5.8), the c-AMP level is quantified by scintillation proximity assay (SPA) using a modification of the commercially available c-AMP kit (Amersham, Arlington Heights, Ill.) with rabbit anti-cAMP antibody (ICN Biomedicals, Aurora, Ohio) for the kit.
Sigmoidal dose response curves, from the whole cell receptor coupled c-AMP assay are fit to a four parameter logistic equation using non linear regression: y=(a−d)/(1+(Dose/c)^b)+d where a and d are responses at zero and maximal dose, b is the slope factor and c is the EC50 as previously described (DeLean et al., Am. J. Physiol., 235, E97-E102, 1978). EC50 is assessed as the concentration producing 50% of the maximum response to each agonist.
Isoproterenol is accepted in the art as a non-selective β3 agonist and is widely used as a comparator in evaluating the activity of compounds. See Trends in Pharm. Sci., 15:3, 1994. The % intrinsic activity (Emax) of representative compounds of the invention is assessed relative to isoproterenol by the compound's maximal response divided by the isoproterenol maximal response times 100.

Structure (SMILES)	Emax (%) ± SEM
CC(C)(Cc1ccc(Oc2ncccc2C#N)cc1)NC[C@H](O)COc1ccccc1N1CCCC1=O [Example 58]	21.0 ± 3.4%
CC(C)(Cc1ccc(Oc2ccc(C(N)=O)cn2)cc1)NC[C@H](O)COc1cccc(C2=NCCN2)c1 [Example 59]	<10%
CC(C)(Cc1ccc(Oc2ncccc2C#N)cc1)NC[C@H](O)COc1ccccc1-c1ccon1.Cl [Example 60]	70.8 ± 3.1%
CC(C)(Cc1ccc(Oc2ncccc2C#N)cc1)NC[C@H](O)COc1ccccc1-c1ccnc(N)n1 [Example 61]	32.8 ± 4.3%
CC(C)(Cc1ccc(Oc2ncccc2C#N)cc1)NC[C@H](O)COc1ccc(-c2ccno2)cc1.O=C(O)C(F)(F)F [Example 62]	24.7 ± 5.2%
CC(C)(Cc1ccc(Oc2ncccc2C#N)cc1)NC[C@H](O)COc1ccc(F)cc1-c1cccs1.O=C(O)C(=O)O [Example 63]	52.6 ± 2.5%
CC(C)(Cc1ccc(Oc2ncccc2C#N)cc1)NC[C@H](O)COc1cccc(F)c1-c1cccs1.O=C(O)C(F)(F)F [Example 64]	30.5 ± 6.8%
CC(C)(Cc1ccc(Oc2ncccc2C#N)cc1)NC[C@H](O)COc1ccccc1-c1cnco1.Cl [Example 65]	55.9 ± 5.8%
Cn1nccc1-c1ccccc1OC[C@@H](O)CNC(C)(C)Cc1ccc(Oc2ncccc2C(N)=O)cc1 [Example 66]	26.6 n = 1%
Cn1ccc(-c2ccccc2OC[C@@H](O)CNC(C)(C)Cc2ccc(Oc3ccc(C(N)=O)cn3)cc2)n1 [Example 67]	77.4 n = 1%
CC(C)(Cc1ccc(Oc2ncccc2C(N)=O)cc1)NC[C@H](O)COc1ccccc1-c1cccs1 [Example 68]	83.7 ± 3.0%
CC(C)(Cc1ccc(Oc2ncccc2C(N)=O)cc1)NC[C@H](O)COc1ccccc1-c1cccs1.Cl [Example 69]	80.7 ± 4.4%
CC(C)(Cc1ccc(Oc2ncccc2C(N)=O)cc1)NC[C@H](O)COc1ccccc1-c1nccs1 [Example 70]	73.8 ± 6.0%
CC(C)(Cc1ccc(Oc2ncccc2C(N)=O)cc1)NC[C@H](O)COc1ccccc1-c1nccs1.Cl [Example 71]	65.6 ± 1.3%
CC(C)(Cc1ccc(Oc2ncccc2C(N)=O)cc1)NC[C@H](O)COc1ccccc1-c1ccno1 [Example 72]	67.6 ± 7.1%
CC(C)(Cc1ccc(Oc2ncccc2C(N)=O)cc1)NC[C@H](O)COc1ccccc1-c1ccno1.Cl [Example 73]	69.5 ± 0.1%
CC(C)(Cc1ccc(Oc2ncccc2C(N)=O)cc1)NC[C@H](O)COc1ccccc1-c1ccn[nH]1 [Example 74]	36.8 n = 1%
CC(C)(Cc1ccc(Oc2ccc(C(N)=O)cn2)cc1)NC[C@H](O)COc1ccccc1-c1ccncn1 [Example 75]	40.3 ± 3.7%
CC(C)(Cc1ccc(Oc2ncccc2C(N)=O)cc1)NC[C@H](O)COc1ccccc1-c1ccncn1 [Example 76]	48.8 ± 5.5%
CC(C)(Cc1ccc(Oc2ncccc2C(N)=O)cc1)NC[C@H](O)COc1ccccc1N1CCCC1=O [Example 77]	22.4 ± 4.6%
CC(C)(Cc1ccc(Oc2ncccc2C(N)=O)cc1)NC[C@H](O)COc1ccccc1N1CCOCC1.Cl.Cl [Example 78]	30.3 ± 5.1%
CC(C)(Cc1ccc(Oc2ncccc2C(N)=O)cc1)NC[C@H](O)COc1ccccc1N1CCCCC1.Cl.Cl [Example 79]	21.3 ± 3.3%
CC(C)(Cc1ccc(Oc2ncccc2C(N)=O)cc1)NC[C@H](O)COc1ccccc1N1CCNCC1.Cl.Cl.Cl [Example 80]	12.3 ± 0.2%
CC(C)(Cc1ccc(Oc2ncccc2C(N)=O)cc1)NC[C@H](O)COc1ccccc1-c1nc2ccccc2o1 [Example 81]	60.4 ± 5.1%
CC(C)(Cc1ccc(Oc2ncccc2C(N)=O)cc1)NC[C@H](O)COc1ccccc1-c1nc2ccccc2s1 [Example 82]	45.9 ± 10.7%
CC1(C)COC(c2ccccc2OC[C@@H](O)CNC(C)(C)Cc2ccc(Oc3ncccc3C(N)=O)cc2)=N1.Cl [Example 83]	83.5 ± 4.4%
CC(C)(Cc1ccc(Oc2ncccc2C(N)=O)cc1)NC[C@H](O)COc1ccccc1N1CCCC1 [Example 84]	72.1 ± 6.2%

Structure (SMILES)	Emax (%) ± SEM
CC(C)(Cc1ccc(Oc2ncccc2C(N)=O)cc1)NC[C@H](O)COc1ccccc1-n1cccc1.Cl [Example 85]	69.2 ± 12.1%
CC(C)(Cc1ccc(Oc2ncccc2C(N)=O)cc1)NC[C@H](O)COc1ccccc1-c1nnco1 [Example 86]	64.6 ± 3.3%
CC(C)(Cc1ccc(Oc2ncccc2C(N)=O)cc1)NC[C@H](O)COc1cc(Cl)ccc1-c1nnco1 [Example 87]	14.2 n = 1%
CC(C)(Cc1ccc(Oc2ncccc2C(N)=O)cc1)NC[C@H](O)COc1cccc(C2=NCCN2)c1 [Example 88]	<10%
CC(C)(Cc1ccc(Oc2ncccc2C(N)=O)cc1)NC[C@H](O)COc1ccccc1-c1ccon1.Cl [Example 89]	71.8 ± 2.5%
CC(C)(Cc1ccc(Oc2ncccc2C(N)=O)cc1)NC[C@H](O)COc1ccccc1-c1ccnc(N)n1 [Example 90]	31.5 ± 2.8%
CC(C)(Cc1ccc(Oc2ncccc2C(N)=O)cc1)NC[C@H](O)COc1cccc(-c2ccnc(N)n2)c1 [Example 91]	24.9 ± 9.3%
CC(C)(Cc1ccc(Oc2ncccc2C(N)=O)cc1)NC[C@H](O)COc1cccc(-c2cc[nH]n2)c1 [Example 92]	14.4 n = 1%
CC(C)(Cc1ccc(Oc2ncccc2C(N)=O)cc1)NC[C@H](O)COc1cccc(-c2ccno2)c1 [Example 93]	<10%
CC(C)(Cc1ccc(Oc2ncccc2C(N)=O)cc1)NC[C@H](O)COc1ccc(-c2ccno2)cc1 [Example 94]	<10%
CC(C)(Cc1ccc(Oc2ncccc2C(N)=O)cc1)NC[C@H](O)COc1ccccc1-c1ccns1.O=C(O)C(=O)O [Example 96]	78.1 ± 6.6%
CC(C)(Cc1ccc(Oc2ncccc2C(N)=O)cc1)NC[C@H](O)COc1ccccc1-c1nncs1.O=C(O)C(=O)O [Example 97]	52.4 ± 0.8%
CC(C)(Cc1ccc(Oc2ncccc2C(N)=O)cc1)NC[C@H](O)COc1ccccc1-c1csnn1.O=C(O)C(=O)O [Example 98]	39.2 ± 4.0%
CC(C)(Cc1ccc(Oc2ncccc2C(N)=O)cc1)NC[C@H](O)COc1ccccc1-c1cnco1.Cl [Example 101]	67.4 ± 4.0%
CC(C)(Cc1ccc(Oc2ncccc2C(N)=O)cc1)NC[C@H](O)COc1ccccc1-n1cccn1.Cl [Example 102]	46.1 ± 4.5%
CC(C)(Cc1ccc(Oc2ncccc2C(N)=O)cc1)NC[C@H](O)COc1ccccc1N1CCNC1=O [Example 103]	21.1 ± 0.1%
CC(C)(Cc1ccc(Oc2ncccc2C(N)=O)cc1)NC[C@H](O)COc1ccccc1-n1ccnc1.Cl [Example 104]	36.0 ± 5.0%
CCOC(=O)c1cccnc1Oc1ccc(CC(C)(C)NC[C@H](O)COc2ccccc2-c2ccnn2C)cc1 [Example 105]	<10%
CCOC(=O)c1cccnc1Oc1ccc(CC(C)(C)NC[C@H](O)COc2ccccc2-c2ccn(C)n2)cc1 [Example 106]	53.2 ± 2.4%
CCOC(=O)c1cccnc1Oc1ccc(CC(C)(C)NC[C@H](O)COc2ccccc2-c2cccs2)cc1 [Example 107]	84.3 ± 5.3%
CCOC(=O)c1cccnc1Oc1ccc(CC(C)(C)NC[C@H](O)COc2ccccc2-c2cccs2)cc1.O=C(O)C(F)(F)F [Example 108]	87.1 ± 11.9%
CCOC(=O)c1cccnc1Oc1ccc(CC(C)(C)NC[C@H](O)COc2ccccc2-c2nccs2)cc1 [Example 109]	61.4 ± 4.4%
CCOC(=O)c1cccnc1Oc1ccc(CC(C)(C)NC[C@H](O)COc2ccccc2-c2ccno2)cc1 [Example 110]	60.3 ± 3.9%
CCOC(=O)c1cccnc1Oc1ccc(CC(C)(C)NC[C@H](O)COc2ccccc2-c2ccn[nH]2)cc1 [Example 111]	23.6 n = 1%
CCOC(=O)c1cccnc1Oc1ccc(CC(C)(C)NC[C@H](O)COc2ccccc2-c2ccno2)cc1.O=C(O)C(F)(F)F [Example 112]	56.9 ± 8.6%
COC(=O)c1ccc(Oc2ccc(CC(C)(C)NC[C@H](O)COc3ccccc3-c3ccnn3C)cc2)nc1 [Example 113]	20.7 n = 1%
